PMC12138978, “Mu Opioid Receptor Positive Allosteric Modulator BMS-986122 Confers Agonist-Dependent G Protein Subtype Signaling Bias” (Biochemistry, 2025)
Values joined by “and” are separate entries in the source; they are usually repeats but may differ in a detail not shown here. Identical values can stand only once. Like-named read-outs stand apart in the source and are kept apart here.

Legend:
[1] = biological target: T1, human MOR signaling through Gαi3^K349R, E350G mutant (Homo sapiens, UniProt P35372); experiment: nanoBRET assay, MOR signaling through mutant Gαi3 K349R, E350G; assay type: cell-based; conditions: orthosteric agonist 7-hydroxymitragynine, read-out: KB (affinity of BMS-986122)
T1 construct: host or cells: HEK 293T, transient
Description: (§1) Human embryonic kidney (HEK) 293T cells (ATCC, Manassas, VA) maintained and transfected as described in previous work, with some modifications. Cells were cultured on 0.01% poly-L-lysine (Millipore Sigma, Darmstadt, Germany)-coated 10 cm dishes in Dulbecco’s modified Eagle medium (GIBCO, Grand Island, NY) supplemented with 5% fetal bovine serum, 1% nonessential amino acids, 1 mM sodium pyruvate, and 100 U/mL penicillin/streptomycin, maintained in an incubator at 37 °C in a 5% CO2 atmosphere. Prior to transfection, 3.0 × 10^6 cells were reseeded onto Matrigel-coated (Corning, Inc., Corning NY) 6 cm dishes and incubated for 4 h at 37 °C and 5% CO2. […]
(§2) BRET measurements between mVenus-Gβ1γ2 and masGRK3ct-nLuc for nanoBRET, and Gγ-GFP2 and Gα-rLuc8 for TruPATH, were performed to determine agonist-dependent activation of each Gα protein of interest in the presence and absence of BMS-986122, in live HEK 293T cells. […] For TruPATH, cells were incubated for 30 min at 25 °C prior to luminescence emissions being read at 515 and 410 nm. […]
(§3) This form of the operational model was selected because all parameters are constrained by default to be equal for each data set except for τ, which had no constraints. […] Statistical significance between Δlog(τ) values for each Gα subunit were calculated via one-way ANOVA with Tukey’s posthoc analysis. […]

[2] = biological target: T2, human MOR signaling through Gαi2^N346 K mutant (Homo sapiens, UniProt P35372); experiment: nanoBRET assay, MOR signaling through mutant Gαi2 N346K; assay type: cell-based; conditions: orthosteric agonist 7-hydroxymitragynine, read-out: KB (affinity of BMS-986122)
T2 construct: host or cells: HEK 293T, transient
Description: as §1, §2, §3

MOR = test system: MOR; design: method as in Burford et al.; conditions: endomorphin-1 as orthosteric agonist, allosteric ternary complex model; ref Burford et al.; cited from earlier work
[3] = biological target: T3, human MOR signaling through Gαi2 (Homo sapiens, UniProt P35372); assay type: cell-based; conditions: for Kb: read-out: KB (affinity of BMS-986122)
T3 construct: host or cells: HEK 293T, transient

[4] = biological target: T4, human MOR signaling through Gαi3 (Homo sapiens, UniProt P35372); assay type: cell-based
T4 construct: host or cells: HEK 293T, transient

[5] = biological target: T5, human MOR signaling through GαoA (Homo sapiens, UniProt P35372); assay type: cell-based
T5 construct: host or cells: HEK 293T, transient

[6] = test system: human MOR signaling through different Gα subunits; experiment: nanoBRET assay, comparison or average across Gα subunits; assay type: cell-based; conditions: 7-hydroxymitragnine as agonist, 10 μM PAM, relative transduction coefficients compared between Gαi3 and GαoB
[7] = biological target: T6, human MOR signaling through Gαz with RGS20 (Homo sapiens, UniProt P35372); experiment: nanoBRET assay, MOR signaling through Gαz with RGS20 (RGSz1) coexpression; assay type: cell-based; conditions: RGS20 (RGSz1) co-expressed
T6 construct: host or cells: HEK 293T, transient

[8] = biological target: T7, human MOR signaling through GαoB (Homo sapiens, UniProt P35372); assay type: cell-based; conditions: for Kb: read-out: KB (affinity of BMS-986122)
T7 construct: host or cells: HEK 293T, transient

[9] = biological target: T8, human MOR signaling through Gαi3-oBct (Homo sapiens, UniProt P35372); experiment: nanoBRET assay, MOR signaling through Gαi3-oBct chimera (C-terminus of GαoB); assay type: cell-based; conditions: orthosteric agonist 7-hydroxymitragynine, read-out: KB (affinity of BMS-986122)
T8 construct: host or cells: HEK 293T, transient
Description: as §1, §2, §3

[10] = biological target: T9, human MOR signaling through Gαi1 (Homo sapiens, UniProt P35372); assay type: cell-based
T9 construct: host or cells: HEK 293T, transient

[11] = biological target: T10, human MOR signaling through Gαz (Homo sapiens, UniProt P35372); assay type: cell-based; conditions: Gαz, up to 10 μM, absence of any orthosteric agonist, no RGS20
T10 construct: host or cells: HEK 293T, transient
T10 sequence (P35372 whole entry): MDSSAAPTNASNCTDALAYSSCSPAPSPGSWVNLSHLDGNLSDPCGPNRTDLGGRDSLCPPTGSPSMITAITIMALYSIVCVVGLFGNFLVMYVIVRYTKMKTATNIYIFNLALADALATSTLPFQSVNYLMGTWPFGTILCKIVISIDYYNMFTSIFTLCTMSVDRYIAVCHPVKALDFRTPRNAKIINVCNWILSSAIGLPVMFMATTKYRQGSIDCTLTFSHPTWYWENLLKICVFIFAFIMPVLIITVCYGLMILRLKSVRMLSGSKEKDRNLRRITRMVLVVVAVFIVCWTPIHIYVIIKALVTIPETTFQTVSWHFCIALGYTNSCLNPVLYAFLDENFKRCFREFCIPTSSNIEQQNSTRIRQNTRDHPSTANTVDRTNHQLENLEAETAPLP
T10 sequence (P19086 2-355 partner limits assumed): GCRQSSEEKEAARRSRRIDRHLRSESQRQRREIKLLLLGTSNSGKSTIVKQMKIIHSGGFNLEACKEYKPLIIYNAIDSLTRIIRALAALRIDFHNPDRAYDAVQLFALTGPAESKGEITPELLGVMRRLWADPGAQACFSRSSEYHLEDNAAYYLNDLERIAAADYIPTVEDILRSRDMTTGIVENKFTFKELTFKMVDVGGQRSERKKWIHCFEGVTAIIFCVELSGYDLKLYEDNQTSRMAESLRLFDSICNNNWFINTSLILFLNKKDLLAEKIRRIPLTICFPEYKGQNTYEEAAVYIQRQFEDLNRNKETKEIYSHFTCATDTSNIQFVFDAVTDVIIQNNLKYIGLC

T4 sequence (P35372 whole entry): as the sequence (P35372 whole entry) above
T4 sequence (P08754 2-354 partner limits assumed): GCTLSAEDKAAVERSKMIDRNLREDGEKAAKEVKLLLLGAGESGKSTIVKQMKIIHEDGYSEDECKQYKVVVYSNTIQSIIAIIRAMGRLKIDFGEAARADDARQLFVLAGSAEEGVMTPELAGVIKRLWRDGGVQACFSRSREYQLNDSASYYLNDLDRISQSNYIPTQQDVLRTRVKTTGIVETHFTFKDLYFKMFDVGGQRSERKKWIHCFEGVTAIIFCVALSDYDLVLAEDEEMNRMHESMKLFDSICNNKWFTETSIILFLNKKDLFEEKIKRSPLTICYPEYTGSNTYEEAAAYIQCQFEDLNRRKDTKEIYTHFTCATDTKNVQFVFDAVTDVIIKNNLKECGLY
T3 sequence (P35372 whole entry): as the sequence (P35372 whole entry) above
T3 sequence (P04899 2-355 partner limits assumed): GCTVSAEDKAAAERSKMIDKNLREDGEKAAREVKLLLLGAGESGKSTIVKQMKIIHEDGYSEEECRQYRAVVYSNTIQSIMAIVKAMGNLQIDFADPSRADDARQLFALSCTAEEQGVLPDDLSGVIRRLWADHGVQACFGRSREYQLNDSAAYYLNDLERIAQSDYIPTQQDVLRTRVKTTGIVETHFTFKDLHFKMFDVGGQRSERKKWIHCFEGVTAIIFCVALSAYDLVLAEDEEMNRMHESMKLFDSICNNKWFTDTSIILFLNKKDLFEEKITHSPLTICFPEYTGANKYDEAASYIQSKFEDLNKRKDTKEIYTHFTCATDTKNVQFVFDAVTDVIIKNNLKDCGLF
T5 sequence (P35372 whole entry): as the sequence (P35372 whole entry) above
T5 sequence (P09471 2-354 partner limits assumed): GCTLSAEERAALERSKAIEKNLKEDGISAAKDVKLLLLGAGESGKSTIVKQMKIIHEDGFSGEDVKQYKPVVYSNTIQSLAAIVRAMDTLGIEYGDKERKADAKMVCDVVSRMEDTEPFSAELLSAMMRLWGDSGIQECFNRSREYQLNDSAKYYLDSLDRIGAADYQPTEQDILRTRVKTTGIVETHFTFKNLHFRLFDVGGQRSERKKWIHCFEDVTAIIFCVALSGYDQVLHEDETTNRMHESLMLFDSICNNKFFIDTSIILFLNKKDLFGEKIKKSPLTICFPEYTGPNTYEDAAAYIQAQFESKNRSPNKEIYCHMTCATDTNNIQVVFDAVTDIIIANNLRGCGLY
T7 sequence (P35372 whole entry): as the sequence (P35372 whole entry) above
T7 sequence (P09471 2-354 isoform P09471-2 partner limits assumed): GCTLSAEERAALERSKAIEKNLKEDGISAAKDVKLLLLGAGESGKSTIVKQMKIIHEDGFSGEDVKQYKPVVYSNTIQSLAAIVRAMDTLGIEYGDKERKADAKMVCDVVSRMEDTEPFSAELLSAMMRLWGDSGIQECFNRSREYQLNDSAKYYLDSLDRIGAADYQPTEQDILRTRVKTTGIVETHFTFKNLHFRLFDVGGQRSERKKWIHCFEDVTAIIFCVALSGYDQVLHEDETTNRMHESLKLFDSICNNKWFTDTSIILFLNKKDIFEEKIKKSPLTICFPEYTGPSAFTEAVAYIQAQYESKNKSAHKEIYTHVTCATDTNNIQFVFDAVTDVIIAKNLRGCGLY
T9 sequence (P35372 whole entry): as the sequence (P35372 whole entry) above
T9 sequence (P63096 2-354 partner limits assumed): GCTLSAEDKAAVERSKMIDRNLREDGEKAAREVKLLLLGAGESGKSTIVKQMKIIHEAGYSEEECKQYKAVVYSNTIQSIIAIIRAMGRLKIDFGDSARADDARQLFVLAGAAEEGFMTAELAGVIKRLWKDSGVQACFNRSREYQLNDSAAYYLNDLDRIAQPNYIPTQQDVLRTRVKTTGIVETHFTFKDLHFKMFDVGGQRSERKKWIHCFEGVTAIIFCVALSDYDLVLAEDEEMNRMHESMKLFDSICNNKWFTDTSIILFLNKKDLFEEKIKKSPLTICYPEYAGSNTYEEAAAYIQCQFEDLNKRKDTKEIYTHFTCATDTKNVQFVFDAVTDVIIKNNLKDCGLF
T1 sequence (P35372 whole entry, stated change not applied): as the sequence (P35372 whole entry) above
T1 sequence (P08754 with tags, fused parts or gaps K349R/E350G partner): as the sequence (P08754 2-354 partner limits assumed) above, with K348R, E349G counted along it
T6 sequence (P35372 whole entry): as the sequence (P35372 whole entry) above
T6 sequence (P19086 2-355 partner limits assumed): as the sequence (P19086 2-355 partner limits assumed) above
T8 sequence (P35372 whole entry): as the sequence (P35372 whole entry) above
T8 sequence (P08754 with tags, fused parts or gaps K345A/N346K/K349R/E350G partner limits assumed): as the sequence (P08754 2-354 partner limits assumed) above, with K344A, N345K, K348R, E349G counted along it
T2 sequence (P35372 whole entry, stated change not applied): as the sequence (P35372 whole entry) above
T2 sequence (P04899 with tags, fused parts or gaps N347K partner): as the sequence (P04899 2-355 partner limits assumed) above, with N346K counted along it

In the case of `COc1ccc(C2SCCN2S(=O)(=O)c2ccc(Cl)cc2)cc1Br` (stereo not drawn) [BMS-986122], the Kb [1] is listed as 2800 ± 400 nM, the Kb [2] is listed as 690 ± 60 nM and the “Affinity cooperativity factor α” value (MOR) is listed as 7.0. For the same compound, the Kb (MOR) was 5000 nM, the “α (affinity cooperativity factor of BMS-986122)” value [3] was 5.9 ± 0.6 and 3.2 ± 0.3 and the “β (efficacy cooperativity factor of BMS-986122)” value [3] was 3.3 ± 0.3. The Kb ([3]; Gαi2 (WT), orthosteric agonist 7-Hydroxymitragynine) was 3100 ± 700 nM, the “β (efficacy cooperativity factor of BMS-986122)” value ([3]; Gαi2, orthosteric agonist 7-Hydroxymitragynine, functional allosteric model) was 10 ± 2.8 and the “Response of PAM alone (allosteric agonism)” value (“Response of PAM alone” below) ([3]; Gαi2, up to 10 μM, absence of any orthosteric agonist) was “no response”. The Kb [3] was 2400 nM and 1500 nM and 1900 nM, the Kb ([4]; Gαi3 (WT), orthosteric agonist 7-Hydroxymitragynine, read-out: KB (affinity of BMS-986122)) was 2300 ± 800 nM and the “β (efficacy cooperativity factor of BMS-986122)” value ([4]; Gαi3, orthosteric agonist 7-Hydroxymitragynine, functional allosteric model) was 5.9 ± 1.1. The “Response of PAM alone” value ([4]; Gαi3, up to 10 μM, absence of any orthosteric agonist) was “no response”, the “α (affinity cooperativity factor of BMS-986122)” value [5] was 7.1 ± 1.0 and 4.3 ± 0.7 and the “β (efficacy cooperativity factor of BMS-986122)” value [5] was 4.2 ± 0.3. For the same compound, the “β (efficacy cooperativity factor of BMS-986122)” value ([5]; GαoA, orthosteric agonist 7-Hydroxymitragynine, functional allosteric model) was 12 ± 1.8, the Kb ([5]; GαoA, orthosteric agonist 7-Hydroxymitragynine, read-out: KB (affinity of BMS-986122)) was 8000 ± 200 nM and the “Response of PAM alone” value ([5]; GαoA, up to 10 μM, absence of any orthosteric agonist) was “no response”. The “ΔΔlog(τ)oB-i3” value [6] was 0.708, the “Allosteric agonism of PAM alone with RGS20 co-expression” value [7] was “effectively eliminate the allosteric agonism” and the “β (efficacy cooperativity factor of BMS-986122)” value [8] was 4.2 ± 0.8. The Kb ([8]; GαoB (WT), orthosteric agonist 7-Hydroxymitragynine) was 540 ± 100 nM, the “Hill coefficient of R50 curve” value ([8]; GαoB, BMS-986122 titrated in presence of 10 μM 7-hydroxymitragynine) was 3.0 and the EC50 ([8]; GαoB, BMS-986122 titrated in presence of constant 10 μM 7-hydroxymitragynine, read-out: R50 (concentration of PAM which gives a half-maximal response)) was 670 ± 110 nM. For the same compound, the “β (efficacy cooperativity factor of BMS-986122)” value ([8]; GαoB, orthosteric agonist 7-Hydroxymitragynine, functional allosteric model) was 15 ± 4.2, the “Response of PAM alone” value ([8]; GαoB, up to 10 μM, absence of any orthosteric agonist) was “no response” and the Kb [8] was 620 ± 180 nM. The Kb [9] was 700 ± 60 nM, the “α (affinity cooperativity factor of BMS-986122)” value [10] was 5.0 ± 0.2 and 6.9 ± 0.9 and the “β (efficacy cooperativity factor of BMS-986122)” value [10] was 10 ± 0.8. The “Response of PAM alone” value ([10]; Gαi1, up to 10 μM, absence of any orthosteric agonist) was “no response”, the Kb ([10]; read-out: KB (affinity of BMS-986122)) was 2500 nM and 3400 nM and the “Emax of PAM alone (allosteric agonism)” value [11] was 21 ± 2%.
